Results taken from patent US10858388B2, “Selective progesterone receptor modulator (SPRM) regimen” (BAYER PHARMA AKTIENGESELLSCHAFT, priority 2015, dated 2020).

What was measured:
Format in all cases: in vivo, human
healthy subjects = experiment: Amenorrhea in healthy subjects
Text: (§1) Compound 1 is a potent Selective Progesterone Receptor Modulator (SPRM) and more particularly a competitive Progesterone Receptor (PR) antagonist creating alternatives for the treatment of Uterine Fibroids. […] Amenorrhea corresponds to the major objective of the treatment i.e. control of excessive uterine bleeding.

[1] = test system: patient diagnosed with Uterine Fibroids; experiment: Long term treatment of patients with Compound 1, summary findings
Text: as §1

[2] = test system: subjects with uterine fibroids; experiment: Study 15788: amenorrhea, 3-month treatment (Example 4)
Experimental: (§2) A randomized, parallel-group, double-blind, placebo-controlled, multi-center study to assess efficacy of different doses of Compound 1 where primary efficacy variable is Amenorrhea, in subjects with uterine fibroids over a 3-month treatment [1×12 weeks/84 days]
(§3) Doses: 0.5 mg, 1 mg, 2 mg, or 4 mg once daily
(§4) Route of administration: Oral
(§5) Duration of treatment: 1×12 weeks (84 days)
Women, 18 to 50 years old, with uterine fibroids documented by transvaginal or abdominal ultrasound at screening with at least 1 uterine fibroid with largest diameter 3 cm and Heavy Menstrual Bleeding (HMB) 80 ml were eligible for enrolment in the study.
Eligible subjects were equally randomized to one of the treatment groups (Placebo, 0.5 mg, 1 mg, 2 mg, or 4 mg Compound 1). Treatment was started during the first week of the menstrual cycle following randomization. The treatment period consisted of 12 weeks (84 days) of daily tablet intake.
Efficacy Measurement: • daily documentation of bleeding intensity (electronic diary or eDiary) • Menstrual Pictogram MP (electronic diary or eDiary) • collection of sanitary products for analysis of menstrual blood loss with alkaline hematin (AH) method
(§6) Onset of amenorrhea is defined by the first day for which the menstrual blood loss (assessed by MP) for all subsequent 28-day periods up to the end of the treatment period is less than 2 ml.
The primary objective estimates the dose-response curve based on the primary endpoint women with amenorrhea by dose.

[3] = test system: subjects with uterine fibroids; experiment: Study 17541: endometrium thickness, 2x3-month treatment with break period (Example 7); conditions: 2 mg once daily, 6 subjects, blinded, 2x12 weeks with 1 bleeding episode break or 1x12 weeks
Experimental: A randomized, parallel-group, double-blind, placebo-controlled, multi-center study to assess efficacy of a dose of 2 mg of Compound 1 where primary efficacy variable is Endometrial thickness, in subjects with uterine fibroids over 2×3-month with break period allowing bleeding episode.
as §4
Duration of treatment: 2×3-month [2×12 weeks]+one bleeding episode (B1) and 1×3-month [1×12 weeks] (B2) without treatment break
Women, 18 to 50 years old, with uterine fibroids documented by transvaginal or abdominal ultrasound at screening with at least 1 uterine fibroid with largest diameter 3.0 cm and heavy menstrual bleeding (HMB) […] were eligible for enrolment in the study.
Number of Women: 6 subjects that have finalized the treatment
Eligible subjects were equally randomized to one of the treatment groups (Placebo, 2 mg of Compound 1). Treatment period was started during the first three days of the bleeding episode following randomization or ongoing at randomization. The treatment period was consisting of daily tablet intake without treatment break. • Treatment B1: 2 mg of Compound 1 (12 weeks), 1 bleeding episode, 2 mg of Compound 1 (12 • weeks). • Treatment B2: Placebo (12 weeks), 1 bleeding episode, 2 mg of Compound 1 (12 weeks).
Efficacy Measurement: • endometrial biopsies, • cervical smear, • transvaginal ultrasound (TUV) (endometrial thickness, ovaries). […]

[4] = test system: subjects with uterine fibroids; experiment: Study 15788: endometrial thickness by transvaginal ultrasound, 3-month treatment (Example 3); conditions: 12 weeks
Experimental: as §2, with “Endometrium thickness and secondary efficacy variable is PAEC” for “Amenorrhea,”
as §3, §4, §5
Women, 18 to 50 years old, with uterine fibroids documented by transvaginal or abdominal ultrasound at screening with at least 1 uterine fibroid with largest diameter 3 cm and heavy menstrual bleeding (HMB) 80 ml were eligible for enrolment in the study.
Eligible subjects were equally randomized to one of the treatment groups (Placebo, 0.5 mg, 1 mg, 2 mg, or 4 mg Compound 1). Treatment started during the first week of the menstrual cycle following randomization. The treatment period consisted of 12 weeks (84 days) of daily tablet intake.
Efficacy Measurement: • endometrial biopsies • cervical smear • transvaginal ultrasound TVU (endometrial thickness, ovaries)
Subjects that were detected with endometrial thickness (double layer)>18 mm (or suspicious bleeding pattern, e.g. continuous spotting, unusually heavy bleeding), were immediately evaluated by an additional endometrial biopsy.

[5] = test system: subjects with uterine fibroids; experiment: Study 17541: amenorrhea, 3-month vs 6-month treatment (Example 5)
Experimental: A randomized, parallel-group, double-blind, placebo-controlled, multi-center study to assess efficacy of a dose of 2 mg of Compound 1 where primary efficacy variable is Amenorrhea, in subjects with uterine fibroids over 3 months [1×12 weeks] and 6 months [2×12 weeks without treatment break].
Test drug: Compound 1 Doses: 2 mg, once daily
as §4
Duration of treatment: 2×12 weeks without treatment break
Women, 18 to 50 years old, with uterine fibroids documented by transvaginal or abdominal ultrasound at screening with at least 1 uterine fibroid with largest diameter 3 cm and Heavy Menstrual Bleeding (HMB) 80∃ ml were eligible for enrolment in the study.
Eligible subjects will be equally randomized to one of the treatment groups (Placebo, 2 mg of Compound 1). Treatment will start during the first week of the menstrual cycle following randomization. The treatment period will consist of 1×12 and 2×12 weeks (84 days) of daily tablet intake. • Treatment A1: 2 mg of Compound 1 (12 weeks), 2 mg of Compound 1 (12 weeks) without treatment break • Treatment A2: Placebo (12 weeks), 2 mg of Compound 1 (12 weeks).
Efficacy Measurement: • daily documentation of bleeding intensity (electronic diary or eDiary) • Menstrual Pictogram MP (electronic diary or eDiary).
as §6
The primary endpoint amenorrhea (no/yes) was based on the bleeding intensity recorded in the eDiary/Daily bleeding diary.

[6] = 6 months (2x12 weeks without treatment break)

Endometrial size [3]: ≤ 18 mm | Endometrial thickness at EoT, max ([4]; 0.5 mg once daily oral): (27.0, 5.2) mm | Subjects with maximum endometrium thickness >18 mm, (%) ([4]; 0.5 mg once daily oral): (3.4) % | Median endometrial thickness at EoT ([4]; 0.5 mg once daily oral, n = 57): 9.0 mm | Endometrial thickness at EoT, max ([4]; 1 mg once daily oral): (41.0, 7.0) mm | Subjects with maximum endometrium thickness >18 mm, (%) ([4]; 1 mg once daily oral): (12.5) % | Median endometrial thickness at EoT ([4]; 1 mg once daily oral, n = 56): 10.0 mm | Endometrial thickness at EoT, max ([4]; 2 mg once daily oral): (27.0, 4.7) mm | Subjects with maximum endometrium thickness >18 mm, (%) ([4]; 2 mg once daily oral): (3.5) % | Median endometrial thickness at EoT ([4]; 2 mg once daily oral, n = 58): 7.5 mm | Endometrial thickness at EoT, max ([4]; 4 mg once daily oral): (20.0, 4.9) mm | Median endometrial thickness at EoT ([4]; 4 mg once daily oral, n = 56): 8.5 mm | Trend in endometrial thickness under treatment ([4]; 0.5-4 mg once daily): no clear trend for an increase | Rate of subjects with endometrial thickness above 18 mm [5, 6]: not found to be increased
Structure (SMILES): C[C@]12C[C@H](c3ccc(S(C)(=O)=O)cc3)C3=C4CCC(=O)C=C4CC[C@H]3[C@@H]1CC[C@@]2(O)C(F)(F)C(F)(F)F [Compound 1, (11β,17β)-17-Hydroxy-11-[4-(methylsulphonyl)phenyl]-17-(pentafluoroethyl)estra-4,9-dien-3-one]
Amenorrhea (healthy subjects): Amenorrhea was observed | Amenorrhea [1]: observed at early stage and with high intensity | Endometrial hypertrophy (TEAE) [1]: no endometrial hypertrophy was reported | Major safety findings [1]: no major safety findings were reported | Ovulation inhibition [1]: ovulation inhibition was observed | Pelvic pain [1]: found to be reduced | Uterine fibroids size [1]: clearly reduced | Amenorrhea (<2 ml) at EoT (%) 12 Weeks ([2]; 0.5 mg once daily oral): 66.63% | Amenorrhea (<2 ml) at EoT (%) 12 Weeks ([2]; 1 mg once daily oral): 87.09% | Amenorrhea (<2 ml) at EoT (%) 12 Weeks ([2]; 2 mg once daily oral): 91.65% | Amenorrhea (<2 ml) at EoT (%) 12 Weeks ([2]; 4 mg once daily oral): 89.81% | Induction of amenorrhea ([2]; 0.5-4 mg once daily, 12 weeks): dose-dependent induction of amenorrhea | Heavy menstrual bleeding ([2]; 0.5-4 mg once daily, 12 weeks, FIG. 3): reduced quickly and sustainably | Subjects achieving amenorrhea during treatment ([2]; 12 weeks, FIG. 3): Most subjects even achieved amenorrhea already during treatment | Treatment-emergent critical endometrial findings [3]: no treatment-emergent critical endometrial findings occurred | Amenorrhea until 6 months of treatment ([5]; 2 mg once daily, 2x12 weeks without treatment break, preliminary data): amenorrhea observed after 1×12 weeks is maintained | Rates of adverse events with regard to ovarian cysts or bleeding [5, 6]: do not show increased rates of adverse events
